Test results taken from US20080025931A1, “Cosmetic method for limiting age-related hollowing of the face” (priority 2006, published 2008).

Key:
[1] = tested on: human adipocytes obtained from the abdominal region; assay: Stimulation of lipogenesis by measuring the incorporation of 14C-acetate into the lipids; format: cell-based; details: for % control (incorporation of 14C-acetate into lipids): 1 h preincubation, 4 h treatment
Protocol: The activity of a Vitreoscilla filiformis cell extract as prepared according to Example 1 on a local adipose development was evaluated. The study was carried out on human adipocytes obtained from the abdominal region. Various parameters representing the adipocyte physiology were analysed: • a) stimulation of lipogenesis by measurement of the incorporation of ^14C-acetate into lipids; • b) stimulation of adipocyte differentiation by measuring the expression of adipocyte differentiation markers: LPL (lipoprotein lipase, involved in the storage of fat; • c) monitoring of the enrichment in lipids by specific staining (AdipoRed™) and imaging; • d) monitoring of the cell size/size distribution by flow cytometry and fluorescent labelling (AdipoRed™). Stimulation of Lipogenesis by Measuring the Incorporation of ^14C-acetate into the Lipids The adipocytes were isolated after an abdominal plastic surgery operation and then incubated in the presence of collagenase and then washed and taken up in test medium. This test medium contained: • product to be tested (Vitreoscilla filiformis extract at various concentrations/theophylline 1 mM/isoproterenol 1 μM), or nothing for the control • bicarbonate 1.87 mg/ml • penicillin/streptomycin 25 IU/ml/25 μg/ml • glutamine 2 mM • MEM without phenol red qs 100% (v/v) supplemented with lipid-free bovine serum albumin at 0.5% (w/v). The products to be tested and the adipocytes were preincubated at 37° C. for 1 h, and then ^14C-acetate was added at 50 μCi/ml. After 4 h of treatment, the lipids were extracted with methanol/chloroform/water and the incorporated radioactivity was counted by liquid scintillation.

LPL (lipoprotein lipase) = assay: Stimulation of adipocyte differentiation: expression of LPL marker by RT-Q-PCR in pre-adipocytes; format: cell-based, human; details: 25 ng/ml; 4 days; control differentiated cells = 100
Protocol: The activity of a Vitreoscilla filiformis cell extract as prepared according to Example 1 on a local adipose development was evaluated. The study was carried out on human adipocytes obtained from the abdominal region. Various parameters representing the adipocyte physiology were analysed: • a) stimulation of lipogenesis by measurement of the incorporation of ^14C-acetate into lipids; • b) stimulation of adipocyte differentiation by measuring the expression of adipocyte differentiation markers: LPL (lipoprotein lipase, involved in the storage of fat; • c) monitoring of the enrichment in lipids by specific staining (AdipoRed™) and imaging; • d) monitoring of the cell size/size distribution by flow cytometry and fluorescent labelling (AdipoRed™). […]
At the end of the treatment, the supernatants were removed and the cells rinsed in PBS and a volume of 300 μl of Tri-Reagent was added to each well. The expression of the LPL marker was evaluated by RT-Q-PCR on messenger RNAs extracted from the cellular lawns of each treatment. […]
The incorporation of fluorescence into the amplified DNA was measured continuously during the PCR cycles. A relative expression value was evaluated for the LPL marker, expressed in arbitrary units according to the following formula: (½^number of cycles)×10^6
The results are expressed as % relative expression compared with the control.

[2] = tested on: Normal human pre-adipocytes; assay: Cell size/size distribution by flow cytometry and AdipoRed fluorescent labelling; format: cell-based; details: differentiated cells; 25 ng/ml
Protocol: (§1) Normal human pre-adipocytes were cultured in PGM growth medium at 37° C. and 5% CO2 until confluent. At confluence (D0), the cells were placed in differentiation medium (series 1, differentiated cells) or normal growth medium (series 2, undifferentiated cells), containing or not containing (control) the test products or the reference (TNFα, differentiation inhibitor). The cells were then incubated at 37° C. and 5% CO2 for 4 days.
Monitoring of the Cell Size/Size Distribution by Flow Cytometry and AdipoRed™ Fluorescent Labelling
At the end of the treatments, the cells were rinsed in PBS and then the intracellular lipids were stained with AdipoRed from BioWhittaker.
At the end of the incubation, the cells were rinsed, trypsinized and then analysed by flow cytometry. The differentiation of the pre-adipocytes manifested itself at the morphological level by an increase in the number of intracytoplasmic lipid vesicles and an increase in the size of the cells.
(§2) The results are expressed as % increase relative to the control.

[3] = tested on: Normal human pre-adipocytes; assay: Enrichment with lipids by AdipoRed staining and imaging (Spectramax reader); format: cell-based; details: differentiated cells, 25 ng/ml
Protocol: as §1
Monitoring of the Enrichment with Lipids by Specific Staining (AdipoRed™) and Imaging
At the end of the treatments, the cells were rinsed in PBS and then the intracellular lipids were stained with AdipoRed from BioWhittaker. The stained cells were observed by optical microscopy, with the Spectramax reader.
as §2

C/C=C/C/C=C/CCC(=O)[C@H]1O[C@H]1C(N)=O [Cerulenin]
% control (incorporation of 14C-acetate into lipids) ([1]; 20 μM): 34 % control | incorporation of acetate into lipids (in words) ([1]; tested at 0.02 mM): significantly inhibited

CC(C)NCC(O)c1ccc(O)c(O)c1 (stereo not shown) [Isoproterenol]
% control (incorporation of 14C-acetate into lipids) ([1]; 1 μM): 3400 % control

TNFα
LPL, % relative expression compared with the control (LPL (lipoprotein lipase)): 111% | % control (AdipoRed measurement, flow cytometry) [2]: 80 % control | lipid level (in words) [3]: reduced the lipid level | % control (intracellular lipids, AdipoRed, Spectramax) ([3]; 4 days): 83 % control
